These results are taken from US20250282749A1 (Tango Therapeutics, Inc., priority 2022, published 2025).

What all share (format): cell-based
In test [1] the test system is PRMT5 (SDMA) in HAP1 MTAP-deleted cell line. Kind of test: SDMA in-cell western assay, HAP1 MTAP-deleted cell line. The following applies: for IC50 / IC90: Homo sapiens, SDMA in-cell western, HAP1 MTAP-deleted (MTAP-null) cell line; for Hap1 MTAP intact/deleted ratio: ratio of SDMA in-cell western IC50 in HAP1 MTAP-intact to IC50 in HAP1 MTAP-deleted cell line. The source says: (§1) HAP1 MTAP-intact is a cell line in which endogenous levels of MTAP are expressed, and HAP1 MTAP-deleted is an MTAP-null cell line.

Test [2] deals with PRMT5 (SDMA) in HAP1 MTAP-intact cell line. Kind of test: SDMA in-cell western assay, HAP1 MTAP-intact cell line. As to conditions: Homo sapiens, HAP1 MTAP-intact cell line (endogenous MTAP), read-out: Hap 1 MTAP intact IC50.
Source text: as §1

The subject of test [3] is HAP1 MTAP-deleted cell line. Put plainly: viability assay for the MTAP-deleted cell line. As to conditions: Homo sapiens.

A value given as a limit tells only on which side of the number the result lay.

As for `C[C@@H]1CN(C(=O)C(=O)Nc2cnc(N)c3cn[nH]c23)[C@@H](c2ccc(F)cc2)CN1C` [Compound 135], in test [1], the IC50 (commonly the point on the concentration scale where inhibition reaches its midpoint) is less than 5 nM; the IC90 (as a rule, the point of the concentration-response curve where the effect stands at 90%) was in the range of 75 to 125 nM; the “Hap1 MTAP intact/deleted ratio” value is “A (an IC50 ratio greater than or equal to 30 fold)”. Besides, the 50% inhibitory concentration (IC50) in test [2] is more than 50 nM. Moreover, in test [3], the IC50 was 100 to 1000 nM.
On the same counts, the results for `Cc1cc(NC(=O)C(=O)N2C[C@@H](C)N(C(=O)C(C)(C)C)C[C@@H]2c2ccccc2)cnc1N` [Compound 99, N-(6-amino-5-methylpyridin-3-yl)-2-((2S,5R)-5-methyl-2-phenyl-4-pivaloylpiperazin-1-yl)-2-oxoacetamide] are less than 5 nM, less than 75 nM, “C (an IC50 ratio of less than 15 fold)”, 5 to 50 nM and less than 100 nM.
On the same counts, the results for `C[C@H]1CN(C(=O)C(=O)Nc2cnc(N)c(C3CC3)c2)[C@H](c2ccc(F)cc2)CN1C(=O)CC1CC1` [Compound 6] are 5 to 50 nM, 75 to 125 nM, “B (an IC50 ratio greater than or equal to 15 fold but lower than 30 fold)”, more than 50 nM and less than 100 nM.
As to `CCc1cc(NC(=O)C(=O)N2C[C@@H](C)N(C(=O)C3(C(F)(F)F)CC3)C[C@@H]2c2ccc(C)cc2)cnc1N` [Compound 85, N-(6-amino-5-ethylpyridin-3-yl)-2-((2S,5R)-5-methyl-2-(p-tolyl)-4-(1-(trifluoromethyl)cyclopropanecarbonyl)piperazin-1-yl)-2-oxoacetamide], in test [1], the half-inhibitory concentration (IC50) fell in the range of 5 to 50 nM, the IC90 is 75 to 125 nM and the “Hap1 MTAP intact/deleted ratio” value is reported as “B (an IC50 ratio greater than or equal to 15 fold but lower than 30 fold)”. The IC50 in test [2] is more than 50 nM. The compound further yielded a half-maximal inhibitory concentration (IC50) in test [3] of less than 100 nM.
As to `CCc1cc(NC(=O)C(=O)N2C[C@@H](C)N(C(=O)C(C)(C)C)C[C@@H]2c2cccc(N3CCN(C)CC3)c2)cnc1N` [Compound 110, N-(6-amino-5-ethylpyridin-3-yl)-2-((2S,5R)-5-methyl-2-(3-(4-methylpiperazin-1-yl)phenyl)-4-pivaloylpiperazin-1-yl)-2-oxoacetamide], in test [1], the 50% inhibitory concentration (IC50) was less than 5 nM, the 90% effect concentration (IC90) was less than 75 nM and the “Hap1 MTAP intact/deleted ratio” value is “C (an IC50 ratio of less than 15 fold)”. Further, in test [2], the half-inhibitory concentration (IC50) is less than 5 nM. Further, in test [3], the 50% inhibitory concentration (IC50) is less than 100 nM.
In the case of `C[C@@H]1CN(C(=O)C(=O)Nc2cnc(N)c(C3COC3)c2)[C@@H](c2ccc(F)cc2)CN1C(=O)C1(C(F)(F)F)CC1` [Compound 72, N-(6-amino-5-(oxetan-3-yl)pyridin-3-yl)-2-((2S,5R)-2-(4-fluorophenyl)-5-methyl-4-(1-(trifluoromethyl)cyclopropanecarbonyl)piperazin-1-yl)-2-oxoacetamide], in test [1], the half-inhibitory concentration (IC50) is 5 to 50 nM, the concentration for an effect of 90% (IC90) was in the range of 75 to 125 nM and the “Hap1 MTAP intact/deleted ratio” value is “A (an IC50 ratio greater than or equal to 30 fold)”. Besides, the 50% inhibitory concentration (IC50) in test [2] was more than 50 nM. The same compound had a half-inhibitory concentration (IC50) in test [3] of less than 100 nM.
For `C[C@@H]1CN(C(=O)C(=O)Nc2cncc3[nH]ncc23)[C@@H](c2ccc(F)cc2)CN1C(=O)C(C)(C)C` [Compound 125, 2-[(2R,5R)-4-(2,2-dimethylpropanoyl)-2-(4-fluorophenyl)-5-methyl-piperazin-1-yl]-2-oxo-N-(^1H-pyrazolo[3,4-c]pyridin-4-yl)acetamide], in test [1], the half-inhibitory concentration (IC50) was in the range of 5 to 50 nM, the IC90 is less than 75 nM and the “Hap1 MTAP intact/deleted ratio” value was “A (an IC50 ratio greater than or equal to 30 fold)”. Besides, the 50% inhibitory concentration (IC50) in test [2] is more than 50 nM. Also, the half-inhibitory concentration (IC50) in test [3] was in the range of 100 to 1000 nM.
As for `Cc1cc(NC(=O)C(=O)N2C[C@@H](C)N(C(=O)OC3(C)CC3)C[C@@H]2c2ccc(F)cc2)cnc1N` [Compound 120], the IC50 in test [1] is 5 to 50 nM; in test [2], more than 50 nM; in test [3], 100 to 1000 nM. Further, the IC90 in test [1] was 75 to 125 nM. Besides, in test [1], the “Hap1 MTAP intact/deleted ratio” value is reported as “B (an IC50 ratio greater than or equal to 15 fold but lower than 30 fold)”.
As to `CC(C)C(=O)N1C[C@H](c2ccc(F)c(Cl)c2)N(C(=O)C(=O)Nc2cnc(N)c(C3CC3)c2)C[C@H]1C` [Compound 24, N-(6-amino-5-cyclopropylpyridin-3-yl)-2-((2S,5R)-2-(3-chloro-4-fluorophenyl)-4-isobutyryl-5-methylpiperazin-1-yl)-2-oxoacetamide], in test [1], the IC50 was less than 5 nM, the 90% effect concentration (IC90) is less than 75 nM and the “Hap1 MTAP intact/deleted ratio” value was “B (an IC50 ratio greater than or equal to 15 fold but lower than 30 fold)”. Moreover, the half-maximal inhibitory concentration (IC50) in test [2] is more than 50 nM. Further, the concentration for half-maximal inhibition (IC50) in test [3] is less than 100 nM.
On the same counts, the results for `Cc1cc(NC(=O)C(=O)N2C[C@@H](C)N(C(=O)C(C)(C)N(C)C)C[C@@H]2c2ccccc2)cnc1N` [Compound 28] are 5 to 50 nM, 75 to 125 nM, “B (an IC50 ratio greater than or equal to 15 fold but lower than 30 fold)”, more than 50 nM and less than 100 nM.
On the same counts, the results for `CCc1cc(NC(=O)C(=O)N2C[C@@H](C)N(C(=O)C3(C)CC3)C[C@@H]2c2ccccc2)cnc1N` [Compound 58, N-(6-amino-5-ethylpyridin-3-yl)-2-((2S,5R)-5-methyl-4-(1-methylcyclopropanecarbonyl)-2-phenylpiperazin-1-yl)-2-oxoacetamide] are 5 to 50 nM, less than 75 nM, “C (an IC50 ratio of less than 15 fold)”, more than 50 nM and less than 100 nM.
As for `COc1ncc(NC(=O)C(=O)N2C[C@@H](C)N(C(=O)C(C)C)C[C@@H]2c2ccc(F)cc2)cc1C(N)=O` [Compound 83, 5-[[2-[(2S,5R)-2-(4-fluorophenyl)-5-methyl-4-(2-methylpropanoyl)piperazin-1-yl]-2-oxo-acetyl]amino]-2-methoxy-pyridine-3-carboxamide], the values for the IC50 in test [1], in test [2] and in test [3] were 5 to 50 nM, more than 50 nM and 100 to 1000 nM, respectively. Besides, the 90% effect concentration (IC90) in test [1] is 75 to 125 nM. In test [1], the “Hap1 MTAP intact/deleted ratio” value was “A (an IC50 ratio greater than or equal to 30 fold)”.
As for `Cc1cccc([C@H]2CN(C(=O)C3(C)CC3)[C@H](C)CN2C(=O)C(=O)Nc2cnc(N)c(C)c2)c1` [Compound 40, N-(6-amino-5-methylpyridin-3-yl)-2-((2S,5R)-5-methyl-4-(1-methylcyclopropanecarbonyl)-2-(m-tolyl)piperazin-1-yl)-2-oxoacetamide], in test [1], the IC50 fell in the range of 5 to 50 nM, the IC90 is more than 125 nM and the “Hap1 MTAP intact/deleted ratio” value is on record as “C (an IC50 ratio of less than 15 fold)”. In test [2], the IC50 is more than 50 nM. In test [3], this compound came in with a 50% inhibitory concentration (IC50) of less than 100 nM.
On to `CCc1cc(NC(=O)C(=O)N2C[C@@H](C)N(C(=O)C(C)C)C[C@@H]2c2cccc(N3CCN(C)CC3)c2)cnc1N` [Compound 41, N-(6-amino-5-ethylpyridin-3-yl)-2-((2S,5R)-4-isobutyryl-5-methyl-2-(3-(4-methylpiperazin-1-yl)phenyl)piperazin-1-yl)-2-oxoacetamide], for which, in test [1], the concentration for half-maximal inhibition (IC50) is less than 5 nM, the IC90 was less than 75 nM and the “Hap1 MTAP intact/deleted ratio” value is listed as “C (an IC50 ratio of less than 15 fold)”. The concentration for half-maximal inhibition (IC50) in test [2] lay in the range of 5 to 50 nM. For the same compound, the IC50 in test [3] is less than 100 nM.
On the same counts, the results for `CCc1cc(NC(=O)C(=O)N2C[C@@H](C)N(C(=O)C(C)C)C[C@@H]2c2cccc(OCCN(C)C)c2)cnc1N` [Compound 67, N-(6-amino-5-ethylpyridin-3-yl)-2-((2S,5R)-2-(3-(2-(dimethylamino)ethoxy)phenyl)-4-isobutyryl-5-methylpiperazin-1-yl)-2-oxoacetamide] are less than 5 nM, less than 75 nM, “C (an IC50 ratio of less than 15 fold)”, 5 to 50 nM and less than 100 nM.
In the case of `Cc1cc(NC(=O)C(=O)N2C[C@@H](C)N(C(=O)C3(C(F)(F)F)CC3)C[C@@H]2c2ccc(Cl)c(Cl)c2)cnc1N` [Compound 119, N-(6-amino-5-methylpyridin-3-yl)-2-((2S,5R)-2-(3,4-dichlorophenyl)-5-methyl-4-(1-(trifluoromethyl)cyclopropanecarbonyl)piperazin-1-yl)-2-oxoacetamide], the figures for the 50% inhibitory concentration (IC50) in test [1], in test [2] and in test [3] were 5 to 50 nM, more than 50 nM and less than 100 nM, respectively. Further, the IC90 in test [1] fell in the range of 75 to 125 nM. In test [1], the “Hap1 MTAP intact/deleted ratio” value is “C (an IC50 ratio of less than 15 fold)”.
As for `CCc1cc(NC(=O)C(=O)N2C[C@@H](C)N(C(=O)C(C)C)C[C@@H]2c2ccc(C)cc2)cnc1N` [Compound 71, N-(6-amino-5-ethylpyridin-3-yl)-2-((2S,5R)-4-isobutyryl-5-methyl-2-(p-tolyl)piperazin-1-yl)-2-oxoacetamide], in test [1], the IC50 was 5 to 50 nM, the IC90 was 75 to 125 nM and the “Hap1 MTAP intact/deleted ratio” value is recorded as “B (an IC50 ratio greater than or equal to 15 fold but lower than 30 fold)”. Moreover, the 50% inhibitory concentration (IC50) in test [2] is more than 50 nM. In addition, the IC50 in test [3] was less than 100 nM.
On the same counts, the results for `Cc1cc(NC(=O)C(=O)N2C[C@@H](C)N(C(=O)C(C)(C)C)C[C@@H]2c2cccc(N3CCN(C)CC3)c2)cnc1N` [Compound 7, N-(6-amino-5-methylpyridin-3-yl)-2-((2S,5R)-5-methyl-2-(3-(4-methylpiperazin-1-yl)phenyl)-4-pivaloylpiperazin-1-yl)-2-oxoacetamide] are less than 5 nM, less than 75 nM, “C (an IC50 ratio of less than 15 fold)”, less than 5 nM and less than 100 nM.
